Measurements from ChEMBL document CHEMBL1201862, “PubChem BioAssay data set” (2004).
The source made the active and inactive calls.

Columns and labels:
[1] = cells
[2] = molecular target: Dual specificity protein phosphatase 3 (Homo sapiens, UniProt P51452); assay: Dose Response Confirmation of compounds that inhibit VHR1 in Fluorescent Assay. [Related pubchem assays (depositor defined):AID1661, AID1878]; assay type: functional
[3] = molecular target: T1, Low molecular weight phosphotyrosine protein phosphatase (Homo sapiens, UniProt P24666); assay type: functional; settings: read-out: IC50_Mean;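 note: Dose-response confirmation assay measuring inhibition of LMPTP enzyme activity by fluorescence intensity read-out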
T1 sequence (P24666 whole entry): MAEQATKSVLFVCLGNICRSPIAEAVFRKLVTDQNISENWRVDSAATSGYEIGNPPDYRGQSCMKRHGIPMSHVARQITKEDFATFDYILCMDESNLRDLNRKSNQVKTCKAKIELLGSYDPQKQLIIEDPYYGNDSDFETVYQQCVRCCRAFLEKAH

[4] = molecular target: T2, Tyrosine-protein phosphatase non-receptor type 7 (Homo sapiens, UniProt P35236); assay: Dose Response confirmation of compounds that inhibit HePTP. [Related pubchem assays (depositor defined):AID1059, AID1661, AID2085]; assay type: functional
T2 sequence (P35236 whole entry): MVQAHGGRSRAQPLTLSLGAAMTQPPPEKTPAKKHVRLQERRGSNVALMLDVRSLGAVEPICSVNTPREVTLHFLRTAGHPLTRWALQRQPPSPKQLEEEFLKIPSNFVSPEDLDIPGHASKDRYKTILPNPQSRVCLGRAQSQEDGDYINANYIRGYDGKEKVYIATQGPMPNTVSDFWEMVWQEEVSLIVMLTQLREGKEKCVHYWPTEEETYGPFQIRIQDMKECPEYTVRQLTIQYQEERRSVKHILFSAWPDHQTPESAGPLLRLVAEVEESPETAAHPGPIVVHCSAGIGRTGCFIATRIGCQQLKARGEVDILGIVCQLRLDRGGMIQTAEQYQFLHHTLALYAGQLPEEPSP

[5] = inhibitors of Bluetongue virus cytopathic effect, confirmation, arbovirus, BSR cells (AID 1250); assay type: functional;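 note: protection from viral cytopathic effect measured as cell viability by ATP luminescence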
[6] = molecular target: Caspase-7 (Homo sapiens, UniProt P55210); assay: procaspase-7 activators, dose response, counter-screen for procaspase-3 activator project, biochemical, absorbance (AID 489013)
[7] = molecular target: T3, Caspase-3 (Homo sapiens, UniProt P42574); assay: procaspase-3 activators, dose response, biochemical, absorbance (AID 489014)
T3 sequence (P42574 whole entry): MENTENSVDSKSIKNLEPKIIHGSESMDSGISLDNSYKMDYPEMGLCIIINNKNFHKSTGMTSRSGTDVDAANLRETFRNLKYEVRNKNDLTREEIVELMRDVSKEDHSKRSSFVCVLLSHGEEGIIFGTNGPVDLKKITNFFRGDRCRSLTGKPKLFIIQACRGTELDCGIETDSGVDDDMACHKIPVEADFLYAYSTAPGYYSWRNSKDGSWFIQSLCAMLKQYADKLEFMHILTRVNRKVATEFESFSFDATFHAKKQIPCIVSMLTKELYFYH

[8] = molecular target: Phosphoethanolamine/phosphocholine phosphatase (Homo sapiens, UniProt Q8TCT1); assay: SAR assay for compounds that inhibit PHOSPHO1. [Related pubchem assays (depositor defined):AID1545, AID1565, AID1574]
[9] = molecular target: T4, Voltage-gated N-type calcium channel alpha-1B subunit/Amyloid beta A4 precursor protein-binding family A member 1 (Homo sapiens, UniProt Q00975+Q02410); assay: disruptors of Mint-PDZ/N-type channel peptide interaction – biochemical, HTRF, set 2, SAR follow-up (AID 434980); assay type: functional
[10] = molecular target: Large T antigen (Simian virus 40, UniProt P03070); assay type: functional, Betapolyomavirus macacae;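 note: Confirmatory-stage PubChem screen for compounds that inhibit SV40 T antigen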
[11] = molecular target: T4, Voltage-gated N-type calcium channel alpha-1B subunit/Amyloid beta A4 precursor protein-binding family A member 1; assay type: protein assay
[12] = molecular target: T4, Voltage-gated N-type calcium channel alpha-1B subunit/Amyloid beta A4 precursor protein-binding family A member 1; assay type: protein assay; remark: listed apart in the source
[13] = molecular target: T4, Voltage-gated N-type calcium channel alpha-1B subunit/Amyloid beta A4 precursor protein-binding family A member 1; assay: disruptors of Mint-PDZ/N-type channel peptide interaction – biochemical, HTRF, SAR follow-up (AID 2489); assay type: functional
[14] = molecular target: Eukaryotic translation initiation factor 4E (Mus musculus, UniProt P63073); assay: eIF4E–eIF4G protein interaction inhibitors, dose response, biochemical, TR-FRET (AID 855); assay type: functional;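 note: potency for disrupting eIF4E binding to eIF4GI seen as loss of FRET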
[15] = molecular target: Glucose-6-phosphate 1-dehydrogenase (Homo sapiens, UniProt P11413); assay: human G6PD enzyme inhibitors, dose response, selectivity assay for P. falciparum G6PD inhibitor project, biochemical, fluorescence (AID 504792); assay type: functional
[16] = molecular target: T5, Mannose-6-phosphate isomerase (Homo sapiens, UniProt P34949); assay: human PMI inhibitors, high substrate, primary screen, biochemical, fluorescence intensity, high mannose 6-phosphate (AID 1220)
T5 sequence (P34949 whole entry): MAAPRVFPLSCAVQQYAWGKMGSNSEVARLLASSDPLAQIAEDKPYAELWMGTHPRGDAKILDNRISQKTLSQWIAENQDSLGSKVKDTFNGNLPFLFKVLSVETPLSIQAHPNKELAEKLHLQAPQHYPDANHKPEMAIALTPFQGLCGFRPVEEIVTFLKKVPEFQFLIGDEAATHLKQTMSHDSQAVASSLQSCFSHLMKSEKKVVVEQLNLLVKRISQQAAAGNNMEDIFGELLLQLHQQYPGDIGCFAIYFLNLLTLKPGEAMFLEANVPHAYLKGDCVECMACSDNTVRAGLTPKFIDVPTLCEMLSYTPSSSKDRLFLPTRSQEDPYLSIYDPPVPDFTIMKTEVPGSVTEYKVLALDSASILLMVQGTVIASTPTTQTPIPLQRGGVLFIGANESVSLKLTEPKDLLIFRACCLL

[17] = test system: Staphylococcus aureus; assay: Inhibitors of Bacterial Quorum Sensing Structure Activity Relationship (SAR) Analysis: Dose Response Assay. [Related pubchem assays: 700, 527 ]; assay type: functional, organism-based
[18] = molecular target: Melanin-concentrating hormone receptor 1 (Homo sapiens, UniProt Q99705); assay: Late-stage fluorescence-based counterscreen for antagonists of the G-protein coupled receptor 7 (GPR7): cell-based dose response assay to identify antagonists of the melanin-concentrating hormone receptor 1 (MCHR1). [Related pubchem assays (depositor defined):AID1861, AID1880, AID1952, AID2148, AID2251, AID2257, AID485339]; assay type: functional;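 note: stimulated with 30 nM MCH peptide agonist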
[19] = molecular target: Protein-tyrosine kinase 2-beta (Homo sapiens, UniProt Q14289);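 note: potency of inhibitors of PYK2 kinase phosphorylation of poly-GT substrate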
[20] = molecular target: T6, SUMO-activating enzyme (Homo sapiens, UniProt Q9UBT2); assay: SUMOylation inhibitor hit validation, confirmation, SUMOylation inhibitor project, biochemical, AlphaScreen (AID 2018); assay type: functional
[21] = molecular target: T6, SUMO-activating enzyme; assay: inhibitors of in vitro SUMOylation cascade, primary screen, biochemical, HTRF, uHTS (AID 2006); assay type: protein-complex assay

T4 sequence (Q00975 whole entry): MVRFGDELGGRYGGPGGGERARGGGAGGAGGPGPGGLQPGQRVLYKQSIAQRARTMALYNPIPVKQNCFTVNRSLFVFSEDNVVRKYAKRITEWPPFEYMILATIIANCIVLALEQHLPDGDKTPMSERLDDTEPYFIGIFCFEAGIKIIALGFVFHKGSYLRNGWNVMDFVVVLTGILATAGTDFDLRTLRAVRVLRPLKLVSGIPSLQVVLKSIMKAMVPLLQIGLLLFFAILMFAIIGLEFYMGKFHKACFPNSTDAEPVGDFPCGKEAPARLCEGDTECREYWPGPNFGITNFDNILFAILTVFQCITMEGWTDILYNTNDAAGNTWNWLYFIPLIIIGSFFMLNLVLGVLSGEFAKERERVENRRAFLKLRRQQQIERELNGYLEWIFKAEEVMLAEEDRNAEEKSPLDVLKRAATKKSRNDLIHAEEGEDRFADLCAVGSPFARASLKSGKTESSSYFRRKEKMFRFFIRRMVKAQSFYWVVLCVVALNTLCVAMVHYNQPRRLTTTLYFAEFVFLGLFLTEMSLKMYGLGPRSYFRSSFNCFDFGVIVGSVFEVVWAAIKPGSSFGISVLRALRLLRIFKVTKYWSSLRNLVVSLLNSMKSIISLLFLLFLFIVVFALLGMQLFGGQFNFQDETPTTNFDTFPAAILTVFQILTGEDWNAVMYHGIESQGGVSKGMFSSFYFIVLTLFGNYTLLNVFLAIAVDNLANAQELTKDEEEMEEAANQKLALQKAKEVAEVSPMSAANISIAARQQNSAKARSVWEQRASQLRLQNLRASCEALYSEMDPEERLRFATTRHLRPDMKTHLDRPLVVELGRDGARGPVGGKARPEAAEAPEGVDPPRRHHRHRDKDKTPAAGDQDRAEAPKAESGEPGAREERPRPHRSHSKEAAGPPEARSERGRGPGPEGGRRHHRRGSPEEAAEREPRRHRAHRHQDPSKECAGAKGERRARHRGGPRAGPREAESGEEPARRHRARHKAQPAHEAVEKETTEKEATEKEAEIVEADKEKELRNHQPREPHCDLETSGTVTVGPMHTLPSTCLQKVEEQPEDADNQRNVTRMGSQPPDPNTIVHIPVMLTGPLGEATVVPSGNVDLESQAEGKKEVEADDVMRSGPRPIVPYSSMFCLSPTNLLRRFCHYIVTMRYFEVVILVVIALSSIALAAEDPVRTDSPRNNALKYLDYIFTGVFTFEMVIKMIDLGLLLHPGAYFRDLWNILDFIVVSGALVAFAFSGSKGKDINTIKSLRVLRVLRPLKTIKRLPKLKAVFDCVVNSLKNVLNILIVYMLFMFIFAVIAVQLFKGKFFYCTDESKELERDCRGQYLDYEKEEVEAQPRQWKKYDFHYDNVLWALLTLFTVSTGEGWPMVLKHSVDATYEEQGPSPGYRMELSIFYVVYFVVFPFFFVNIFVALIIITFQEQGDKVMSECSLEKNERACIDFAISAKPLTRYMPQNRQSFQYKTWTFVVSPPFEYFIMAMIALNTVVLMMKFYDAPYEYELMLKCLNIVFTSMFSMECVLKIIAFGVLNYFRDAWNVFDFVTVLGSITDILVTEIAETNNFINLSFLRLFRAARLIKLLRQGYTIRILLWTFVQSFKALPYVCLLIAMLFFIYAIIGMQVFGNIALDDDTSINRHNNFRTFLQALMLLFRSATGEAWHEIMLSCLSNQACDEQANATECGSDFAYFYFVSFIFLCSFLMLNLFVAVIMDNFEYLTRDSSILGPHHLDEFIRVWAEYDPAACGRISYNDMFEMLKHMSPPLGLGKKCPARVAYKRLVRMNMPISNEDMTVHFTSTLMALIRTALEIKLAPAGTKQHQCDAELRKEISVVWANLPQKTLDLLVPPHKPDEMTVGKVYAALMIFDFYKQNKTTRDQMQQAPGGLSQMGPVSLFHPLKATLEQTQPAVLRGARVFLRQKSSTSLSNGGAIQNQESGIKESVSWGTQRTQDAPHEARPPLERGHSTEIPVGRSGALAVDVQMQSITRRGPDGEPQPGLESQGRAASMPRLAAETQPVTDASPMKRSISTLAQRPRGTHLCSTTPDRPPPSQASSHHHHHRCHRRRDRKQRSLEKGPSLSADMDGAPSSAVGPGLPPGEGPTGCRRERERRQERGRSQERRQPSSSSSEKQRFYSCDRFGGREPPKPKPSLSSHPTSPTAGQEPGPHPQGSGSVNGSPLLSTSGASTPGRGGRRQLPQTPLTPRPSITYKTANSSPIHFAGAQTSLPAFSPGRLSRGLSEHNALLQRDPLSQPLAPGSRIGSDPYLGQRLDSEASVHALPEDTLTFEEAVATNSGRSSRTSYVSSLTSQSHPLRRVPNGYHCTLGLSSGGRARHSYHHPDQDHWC
T4 sequence (Q02410 whole entry): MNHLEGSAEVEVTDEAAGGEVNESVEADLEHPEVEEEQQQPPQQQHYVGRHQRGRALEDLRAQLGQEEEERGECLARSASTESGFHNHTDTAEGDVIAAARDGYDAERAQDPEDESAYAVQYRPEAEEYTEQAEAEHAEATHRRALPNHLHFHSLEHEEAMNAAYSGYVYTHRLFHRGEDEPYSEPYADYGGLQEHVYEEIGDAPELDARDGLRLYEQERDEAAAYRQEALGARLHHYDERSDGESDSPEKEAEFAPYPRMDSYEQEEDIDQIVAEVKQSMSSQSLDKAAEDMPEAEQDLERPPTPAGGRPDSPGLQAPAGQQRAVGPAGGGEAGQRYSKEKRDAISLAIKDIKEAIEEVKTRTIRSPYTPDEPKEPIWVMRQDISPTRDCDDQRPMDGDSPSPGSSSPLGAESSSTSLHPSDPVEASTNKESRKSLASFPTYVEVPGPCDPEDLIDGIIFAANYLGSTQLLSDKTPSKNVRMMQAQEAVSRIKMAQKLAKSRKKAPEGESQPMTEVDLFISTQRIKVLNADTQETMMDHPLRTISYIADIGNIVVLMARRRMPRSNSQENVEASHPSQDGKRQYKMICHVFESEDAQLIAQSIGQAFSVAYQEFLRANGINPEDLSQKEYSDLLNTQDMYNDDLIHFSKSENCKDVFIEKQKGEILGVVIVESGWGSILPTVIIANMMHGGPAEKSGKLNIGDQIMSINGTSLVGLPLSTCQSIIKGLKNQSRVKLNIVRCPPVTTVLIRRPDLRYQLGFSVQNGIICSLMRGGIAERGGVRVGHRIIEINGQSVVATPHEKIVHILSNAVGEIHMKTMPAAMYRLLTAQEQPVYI
T6 sequence (Q9UBE0 whole entry): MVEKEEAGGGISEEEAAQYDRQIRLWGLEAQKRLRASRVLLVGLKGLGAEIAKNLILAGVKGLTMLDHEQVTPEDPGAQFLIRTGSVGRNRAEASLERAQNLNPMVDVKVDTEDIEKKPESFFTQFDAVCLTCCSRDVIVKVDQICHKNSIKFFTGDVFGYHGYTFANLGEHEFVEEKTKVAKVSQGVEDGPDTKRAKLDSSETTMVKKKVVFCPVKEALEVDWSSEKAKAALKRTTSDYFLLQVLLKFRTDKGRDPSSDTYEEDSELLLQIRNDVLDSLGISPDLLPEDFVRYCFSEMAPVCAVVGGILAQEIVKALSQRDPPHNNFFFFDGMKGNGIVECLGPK
T6 sequence (Q9UBT2 whole entry): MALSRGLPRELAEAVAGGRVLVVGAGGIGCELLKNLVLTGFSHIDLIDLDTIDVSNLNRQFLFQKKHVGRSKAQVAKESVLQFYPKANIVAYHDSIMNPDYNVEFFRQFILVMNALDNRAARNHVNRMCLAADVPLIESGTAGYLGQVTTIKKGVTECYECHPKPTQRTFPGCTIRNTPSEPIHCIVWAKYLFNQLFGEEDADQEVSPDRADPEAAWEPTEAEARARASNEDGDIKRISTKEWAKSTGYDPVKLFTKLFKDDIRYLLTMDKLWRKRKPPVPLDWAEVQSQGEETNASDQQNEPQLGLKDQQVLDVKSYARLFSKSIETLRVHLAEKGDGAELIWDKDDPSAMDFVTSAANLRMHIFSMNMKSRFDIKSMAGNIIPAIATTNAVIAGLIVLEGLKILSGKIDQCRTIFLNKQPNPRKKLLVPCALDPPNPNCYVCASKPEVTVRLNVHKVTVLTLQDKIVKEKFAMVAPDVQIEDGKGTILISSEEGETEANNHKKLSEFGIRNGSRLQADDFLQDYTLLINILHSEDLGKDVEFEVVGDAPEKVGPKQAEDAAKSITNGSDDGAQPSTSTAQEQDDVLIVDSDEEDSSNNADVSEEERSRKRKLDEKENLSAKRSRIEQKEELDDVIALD
Large T antigen, sequence (P03070 whole entry): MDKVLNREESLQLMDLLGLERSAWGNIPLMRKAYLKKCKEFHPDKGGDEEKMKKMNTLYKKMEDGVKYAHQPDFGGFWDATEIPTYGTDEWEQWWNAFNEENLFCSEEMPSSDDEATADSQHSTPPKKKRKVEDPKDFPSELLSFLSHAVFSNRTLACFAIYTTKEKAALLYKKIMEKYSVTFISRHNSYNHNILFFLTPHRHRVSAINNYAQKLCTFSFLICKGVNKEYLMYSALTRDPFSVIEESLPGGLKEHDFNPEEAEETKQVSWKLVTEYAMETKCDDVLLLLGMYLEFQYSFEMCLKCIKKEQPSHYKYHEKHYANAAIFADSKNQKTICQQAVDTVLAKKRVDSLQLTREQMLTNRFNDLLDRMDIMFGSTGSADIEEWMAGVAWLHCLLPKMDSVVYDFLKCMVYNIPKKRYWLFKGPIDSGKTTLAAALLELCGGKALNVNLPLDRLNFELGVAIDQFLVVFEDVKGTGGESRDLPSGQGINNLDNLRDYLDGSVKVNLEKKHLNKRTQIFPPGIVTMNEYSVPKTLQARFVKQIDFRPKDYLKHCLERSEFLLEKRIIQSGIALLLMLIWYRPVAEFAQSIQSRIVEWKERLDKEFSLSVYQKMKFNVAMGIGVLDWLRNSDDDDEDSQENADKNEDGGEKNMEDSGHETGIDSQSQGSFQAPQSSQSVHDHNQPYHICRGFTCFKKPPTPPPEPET
Dual specificity protein phosphatase 3, sequence (P51452 whole entry): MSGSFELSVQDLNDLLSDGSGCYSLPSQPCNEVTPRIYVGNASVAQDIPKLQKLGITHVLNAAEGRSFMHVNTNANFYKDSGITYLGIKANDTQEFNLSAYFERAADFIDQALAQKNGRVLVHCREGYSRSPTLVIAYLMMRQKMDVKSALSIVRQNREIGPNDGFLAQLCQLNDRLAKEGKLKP

## O=C1c2ccccc2C(Nc2cccnc2)N1Cc1ccc2c(c1)OCO2 (stereo unspecified)
[1]
  IC50: 21.6 µM (active)

## O=C(Nc1ccncc1)c1cc(-c2ccccn2)nc2ccc(Br)cc12
[2]
  IC50: 9.44 µM (active)
[3]
  IC50: 26.3 µM (inactive)
[4]
  IC50: 1.52 µM (active)

## COc1ccc2oc3cc(C)[n+]([O-])c(-c4ccc(C)cc4)c3c2c1
[5]
  IC50: 23 µM (active)

## CC1(C)Cc2c(c(N3CCCC3)nc3sc(C(=O)Nc4ccccc4)c(N)c23)CO1
[6]
  EC50: > 85.3 µM (inactive)
[7]
  EC50: > 85.3 µM (inactive)

## CNc1nc(-c2ccccc2)[n+](-c2ccc(C)cc2)s1
[8]
  IC50: 4.47 µM (inactive)
[9]
  IC50: 278 nM (active)
[10]
  IC50: 39 µM (active)
[11]
  IC50: 2.48 µM (active)
[12]
  IC50: 1.4 µM (active)
[13]
  IC50: < 110 nM (active)
[14]
  IC50: 1.49 µM (active)
[15]
  IC50: 10.5 µM (active)
[16]
  IC50: 6.89 µM (active)

## O=C(Nc1ccc2c(c1)OCO2)C(c1ccccc1)N1CCC(Cc2ccccc2)CC1 (stereo unspecified)
[17]
  IC50: 802 nM (active)

## COc1ccc(Oc2c(Cl)cnn(-c3ccc(C(C)C)cc3)c2=O)cc1
[18]
  IC50: 3.1 µM (active)

## O=C(Cn1c2ccccc2c(=O)c2ccccc21)N/N=C/c1cc([N+](=O)[O-])ccc1N1CCCCCC1
[19]
  IC50: 1.94 µM (active)
[20]
  IC50: 6.12 µM (active)
[21]
  IC50: 24.9 µM (active)
